Experimental data taken from ChEMBL document CHEMBL1201862, “PubChem BioAssay data set” (2004).
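Cultured in 96-well plates, cells were exposed to test compound for 48 hours across five concentrations. Abbreviation: GI50, concentration required for 50% inhibition of growth.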 The source made the active and inactive calls. No stated cut-off is given here; in the data, active = GI50 up to about 1.1 µM and inactive = higher.

Tests used:
Assay in all cases: inhibition of tumour cell growth, NCI panel, 48 h
A498 = test system: A498
NCI-H460 = test system: NCI-H460
RPMI-8226 = test system: RPMI-8226
BT-549 = test system: BT-549
SNB-75 = test system: SNB-75
ACHN = test system: ACHN
LOX IMVI = test system: LOX IMVI
SF-268 = test system: SF-268
TK-10 = test system: TK-10
UACC-257 = test system: UACC-257
HCC 2998 = test system: HCC 2998
OVCAR-5 = test system: OVCAR-5
M14 = test system: M14
HL-60 = test system: HL-60
MDA-N = test system: MDA-N
UO-31 = test system: UO-31
786-0 = test system: 786-0
U-251 = test system: U-251
MOLT-4 = test system: MOLT-4
Hs-578T = test system: Hs-578T
SK-MEL-5 = test system: SK-MEL-5
UACC-62 = test system: UACC-62
OVCAR-3 = test system: OVCAR-3
MCF7 = test system: MCF7
CCRF-CEM = test system: CCRF-CEM
COLO 205 = test system: COLO 205
SNB-19 = test system: SNB-19
SW-620 = test system: SW-620
MDA-MB-435 = test system: MDA-MB-435
NCI-H226 = test system: NCI-H226
DU-145 = test system: DU-145
SK-OV-3 = test system: SK-OV-3
OVCAR-8 = test system: OVCAR-8
HCT-116 = test system: HCT-116
MDA-MB-231 = test system: MDA-MB-231
A549 = test system: A549
NCI-H522 = test system: NCI-H522
OVCAR-4 = test system: OVCAR-4
SK-MEL-28 = test system: SK-MEL-28
HCT-15 = test system: HCT-15
NCI/ADR-RES = test system: NCI/ADR-RES
PC-3 = test system: PC-3
K562 = test system: K562
EKVX = test system: EKVX
SK-MEL-2 = test system: SK-MEL-2
HOP-62 = test system: HOP-62
SF-539 = test system: SF-539
SR = test system: SR
KM12 = test system: KM12
IGROV-1 = test system: IGROV-1
T47D = test system: T47D
HT-29 = test system: HT-29
NCI-H23 = test system: NCI-H23
HOP-92 = test system: HOP-92
CAKI-1 = test system: CAKI-1
SN12C = test system: SN12C
SF-295 = test system: SF-295
Malme-3M = test system: Malme-3M
RXF 393 = test system: RXF 393

C=CC1=C(C)c2cc3[nH]c(c4c5nc(cc6[nH]c(cc1n2)c(C)c6CC)C=C5C(=O)C4C(=O)OC)C(CCC(=O)OC/C=C(\C)CCCC(C)CCCC(C)CCCC(C)C)C3C.C=CC1=C(C)c2cc3[nH]c(c4c5nc(cc6[nH]c(cc1n2)c(C=O)c6CC)C=C5C(=O)C4C(=O)OC)C(CCC(=O)OC/C=C(\C)CCCC(C)CCCC(C)CCCC(C)C)C3C (centres undefined) was tested, and the GI50 (A498) was > 100 µM (inactive), the GI50 (NCI-H460) was > 100 µM (inactive) and the GI50 (RPMI-8226) was > 100 µM (inactive). The GI50 (BT-549) was 76.4 µM (inactive), the GI50 (SNB-75) was > 100 µM (inactive) and the GI50 (ACHN) was > 100 µM (inactive). For the same compound, the GI50 (LOX IMVI) was > 100 µM (inactive), the GI50 (SF-268) was > 100 µM (inactive) and the GI50 (TK-10) was > 100 µM (inactive). For the same compound, the GI50 (UACC-257) was > 100 µM (inactive), the GI50 (HCC 2998) was > 100 µM (inactive) and the GI50 (OVCAR-5) was > 100 µM (inactive). For the same compound, the GI50 (M14) was > 100 µM (inactive), the GI50 (HL-60) was 10 µM (inactive) and the GI50 (MDA-N) was > 100 µM (inactive). The GI50 (UO-31) was > 100 µM (inactive), the GI50 (786-0) was > 100 µM (inactive) and the GI50 (U-251) was > 100 µM (inactive). For the same compound, the GI50 (MOLT-4) was > 100 µM (inactive), the GI50 (Hs-578T) was > 100 µM (inactive) and the GI50 (SK-MEL-5) was > 100 µM (inactive). The GI50 (UACC-62) was > 100 µM (inactive), the GI50 (OVCAR-3) was > 100 µM (inactive) and the GI50 (MCF7) was > 100 µM (inactive). For the same compound, the GI50 (CCRF-CEM) was 10 µM (inactive), the GI50 (COLO 205) was 43.9 µM (inactive) and the GI50 (SNB-19) was > 100 µM (inactive). For the same compound, the GI50 (SW-620) was > 100 µM (inactive), the GI50 (MDA-MB-435) was > 100 µM (inactive) and the GI50 (NCI-H226) was > 100 µM (inactive). The GI50 (DU-145) was > 100 µM (inactive), the GI50 (SK-OV-3) was > 100 µM (inactive) and the GI50 (OVCAR-8) was 43 µM (inactive). The GI50 (HCT-116) was > 100 µM (inactive), the GI50 (MDA-MB-231) was > 100 µM (inactive) and the GI50 (A549) was > 100 µM (inactive). The GI50 (NCI-H522) was 22.6 µM (inactive), the GI50 (OVCAR-4) was > 100 µM (inactive) and the GI50 (SK-MEL-28) was > 100 µM (inactive). For the same compound, the GI50 (HCT-15) was greater than 100 µM, the GI50 (NCI/ADR-RES) was > 100 µM (inactive) and the GI50 (PC-3) was > 100 µM (inactive). For the same compound, the GI50 (K562) was > 100 µM (inactive), the GI50 (EKVX) was 50.6 µM (inactive) and the GI50 (SK-MEL-2) was > 100 µM (inactive). For the same compound, the GI50 (HOP-62) was > 100 µM (inactive), the GI50 (SF-539) was > 100 µM (inactive) and the GI50 (SR) was > 100 µM (inactive). The GI50 (KM12) was > 100 µM (inactive), the GI50 (IGROV-1) was 38.9 µM (inactive) and the GI50 (T47D) was > 100 µM (inactive). The GI50 (HT-29) was > 100 µM (inactive), the GI50 (NCI-H23) was > 100 µM (inactive) and the GI50 (HOP-92) was > 100 µM (inactive). The GI50 (CAKI-1) was > 100 µM (inactive), the GI50 (SN12C) was > 100 µM (inactive) and the GI50 (SF-295) was > 100 µM (inactive).
In the case of CCC(=O)OCN(C)c1nc(N(C)COC(=O)CC)nc(N(C)COC(=O)CC)n1, the GI50 (A498) is reported as 49 µM (inactive), the GI50 (NCI-H460) is reported as 33.4 µM (inactive) and the GI50 (Malme-3M) is reported as 32.6 µM (inactive). The GI50 (RPMI-8226) was 27.4 µM (inactive), the GI50 (BT-549) was 32.9 µM (inactive) and the GI50 (SNB-75) was > 100 µM (inactive). The GI50 (LOX IMVI) was 18 µM (inactive), the GI50 (TK-10) was > 100 µM (inactive) and the GI50 (UACC-257) was 38.9 µM (inactive). For the same compound, the GI50 (HCC 2998) was 24.6 µM (inactive), the GI50 (OVCAR-5) was > 100 µM (inactive) and the GI50 (M14) was 28.1 µM (inactive). For the same compound, the GI50 (HL-60) was > 10 µM (inactive), the GI50 (MDA-N) was 33.3 µM (inactive) and the GI50 (UO-31) was 56.6 µM (inactive). The GI50 (U-251) was > 100 µM (inactive), the GI50 (MOLT-4) was 20.8 µM (inactive) and the GI50 (Hs-578T) was > 100 µM (inactive). The GI50 (SK-MEL-5) was 22.9 µM (inactive), the GI50 (UACC-62) was 18.6 µM (inactive) and the GI50 (OVCAR-3) was > 100 µM (inactive). The GI50 (MCF7) was 42 µM (inactive), the GI50 (CCRF-CEM) was 24.8 µM (inactive) and the GI50 (COLO 205) was 24.3 µM (inactive). For the same compound, the GI50 (SNB-19) was > 100 µM (inactive), the GI50 (SW-620) was 26.9 µM (inactive) and the GI50 (MDA-MB-435) was > 100 µM (inactive). For the same compound, the GI50 (NCI-H226) was 85.5 µM (inactive), the GI50 (DU-145) was 37 µM (inactive) and the GI50 (SK-OV-3) was > 100 µM (inactive). The GI50 (OVCAR-8) was 69.3 µM (inactive), the GI50 (HCT-116) was 22.9 µM (inactive) and the GI50 (MDA-MB-231) was 57.4 µM (inactive). The GI50 (OVCAR-4) was 30.5 µM (inactive), the GI50 (SK-MEL-28) was 64.9 µM (inactive) and the GI50 (HCT-15) was 21.4 µM. The GI50 (NCI/ADR-RES) was 32.4 µM (inactive), the GI50 (PC-3) was 27.4 µM (inactive) and the GI50 (K562) was 13.7 µM (inactive). The GI50 (SK-MEL-2) was 18.2 µM (inactive), the GI50 (HOP-62) was > 100 µM (inactive) and the GI50 (SR) was 26.7 µM (inactive). For the same compound, the GI50 (KM12) was 34.5 µM (inactive), the GI50 (IGROV-1) was > 100 µM (inactive) and the GI50 (T47D) was 35.3 µM (inactive). For the same compound, the GI50 (HT-29) was 26.9 µM (inactive), the GI50 (NCI-H23) was > 100 µM (inactive) and the GI50 (HOP-92) was 89.5 µM (inactive). For the same compound, the GI50 (CAKI-1) was 63.8 µM (inactive), the GI50 (RXF 393) was 10.9 µM (inactive) and the GI50 (SN12C) was 39.8 µM (inactive). The GI50 (SF-295) was > 100 µM (inactive).
